Data as given in patent publication US20240262803A1, “COMPOUNDS, COMPOSITIONS AND METHODS OF TREATING DISORDERS” (Chungdu Anticancer Bioscience Ltd, priority 2021, published 2024).
pEC50: −log10 of the molar value. Like-named read-outs stand apart in the source and are kept apart here.

How the values were obtained:
[1] = test system: cervical cancer cell line Hela; assay: Minimal effective concentration that elicits polyploidy, Hela; format: cell-based; conditions: Homo sapiens, read-out: MECP: Minimal effective concentration that elicits polyploidy
[2] = test system: RPEMYC^H2B-GFP cells; assay: Mechanism-informed phenotypic screening assay (mitotic arrest, polyploidy; GE IN-Cell Analyzer 2000); format: cell-based; conditions: 20 nM to 20 μM, 24, 48 or 72 hours, read-out: Mitotic Arrest (≥5%)
[3] = test system: lung cancer cell line NCI-H2170; assay: Minimal effective concentration that elicits polyploidy, NCI-H2170; format: cell-based, human
[4] = test system: prostate cancer cell line DU145; assay: Minimal effective concentration that elicits polyploidy, DU145; format: cell-based, human
[5] = test system: colon cancer cell line HCT116; assay: MTT assay of cellular proliferation, HCT116; format: cell-based; conditions: Homo sapiens, HCT-116, read-out: EC50: Concentration that inhibits 50% of proliferation
Procedure, shortened: (§1)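 DMEM/5% FBS, 37 °C, 5% CO2; seed, 15˜24 h to 20˜30% confluence; compound 1 nM–10 μM; MTT 3˜4 h at endpoint; solubilize, OD570; EC50 = 50% growth inhibition.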

[6] = test system: lung cancer cell line A549; assay: Minimal effective concentration that elicits polyploidy, A549; format: cell-based; conditions: Homo sapiens, read-out: MECP: Minimal effective concentration that elicits polyploidy
[7] = test system: lung cancer cell line NCI-H460; assay: MTT assay of cellular proliferation, NCI-H460; format: cell-based; conditions: Homo sapiens, read-out: EC50: Concentration that inhibits 50% of proliferation
Protocol: (§2) Six lung cancer cell lines (NCI-H23, NCI-H460, NCI-H596, NCI-H2170, Calu-6 and A549), two colon cancer cell lines (HCT116 and SW460), one breast cancer cell line MDA-MB-231, one gastric cancer cell line NCI-N87, one prostate cancer cell line DU145, one cervical cancer cell line Hela, and one glioblastoma cell line T98G were obtained from ATCC. The T2 HCC cell line was derived from a mouse liver cancer model initiated by a transgene of MYC (Reference). All cell lines were cultured in DMEM (Gibco, Cleveland, TN, USA) supplemented with 5% fetal bovine serum (Gibco), penicillin (100 U/mL)-streptomycin (100 μg/mL) (Gibco, Cat. No. 15140-122), 2 mM L-glutamine (Gibco, 200 mM solution, Cat. No. 25030081), and 1 mM sodium pyruvate (Gibco, 100 mM solution, Cat. No. 11360070) at 37° C. in a humidified incubator that was maintained at 5% CO2.
(§3) The MTT assay measures cellular metabolic activity as a proxy for cell viability and involves the conversion of the water-soluble yellow dye MTT [3-(4,5-dimethylthiazol-2-yl)-2,5-diphenyltetrazolium bromide] into an insoluble purple formazan by the action of mitochondrial reductase. Formazan is then solubilized and its concentration is determined by measuring the optical density (OD) value at a wavelength of 570 nm. The value is in proportional to the number of live cells with excellent linearity up to ˜10^6 cells per well. The MTT assay was used to determine the EC50 value, the concentration of a compound that leads to 50% inhibition of cellular proliferation. Briefly, cells were split when growing to the mid-Log phase. Cells in 100 μL of culture medium were seeded into each well of 96-well microplates and cultivated for 15˜24 hours to reach a confluence of 20˜30% and were then exposed to drugs at concentrations ranging from 1 nM to 10 μM. At the endpoint, 20 μL of a MTT stock solution in DMSO (5 mg/mL) was added to each well that contains […] of DMEM. The microplates were left in the cell culture incubator for 3˜4 h before subjected to solubilization and determination of formazan at A570 in a microplate reader (BioTek ELX808iu). […] Therefore, these compounds might hold a broad utility in the treatment of a large variety of human malignancies.

[8] = test system: prostate cancer cell line DU145; assay: MTT assay of cellular proliferation, DU145; format: cell-based; conditions: Homo sapiens, DU-145, read-out: EC50: Concentration that inhibits 50% of proliferation
Protocol: as §2, §3

[9] = test system: lung cancer cell line Calu-6; assay: Minimal effective concentration that elicits polyploidy, Calu-6; format: cell-based, human
[10] = test system: lung cancer cell line NCI-H2170; assay: MTT assay of cellular proliferation, NCI-H2170; format: cell-based; conditions: Homo sapiens, read-out: EC50: Concentration that inhibits 50% of proliferation
Protocol: as §2, §3

[11] = test system: RPEMYC^H2B-GFP cells; assay: Mechanism-informed phenotypic screening assay (mitotic arrest, polyploidy; GE IN-Cell Analyzer 2000); format: cell-based; conditions: 20 nM to 20 μM, 24, 48 or 72 hours, read-out: Min. Effective conc. for polyploidy (≥5%)
Procedure, shortened: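 Cells expressing Histone 2B-EGFP (RPEMYC^H2B-GFP) were plated 18-24 h before exposure to compounds at 20 nM to 20 μM. At 24, 48 or 72 h, imaging scored mitotic arrest or change in DNA content. Value is the lowest concentration giving polyploid accumulation at 48 h.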

[12] = test system: liver cancer cell line T2 HCC; assay: MTT assay of cellular proliferation, T2 HCC; format: cell-based; conditions: Mus musculus, read-out: EC50: Concentration that inhibits 50% of proliferation
Procedure, shortened: as §1

[13] = test system: lung cancer cell line NCI-H23; assay: MTT assay of cellular proliferation, NCI-H23; format: cell-based; conditions: Homo sapiens, read-out: EC50: Concentration that inhibits 50% of proliferation
Procedure, shortened: as §1

pEC50 [5]	pEC50 [7]	pEC50 [8]	pEC50 [10]	pEC50 [12]	pEC50 [13]	SMILES	minimal effective concentration [1] [µM]	minimal effective concentration [2] [µM]	MECP: Minimal effective concentration that elicits polyploidy [3]	MECP: Minimal effective concentration that elicits polyploidy [4]	minimal effective concentration [6] [µM]	MECP: Minimal effective concentration that elicits polyploidy [9]	minimal effective concentration [11] [µM]
6.00 to 9.00	4.52 to 5.00	6.00 to 9.00	6.00 to 9.00	6.00 to 9.00	6.00 to 9.00	COC(=O)c1cc(Oc2ncccc2-c2ccncc2)cc(C(=O)OC)c1 [Compound 1, Dimethyl 5-([3,4′-bipyridin]-2-yloxy)isophthalate]	0.001 to 1	1	A (A: 1 nM < conc. ≤ 1 μM)	A (A: 1 nM < conc. ≤ 1 μM)	1 to 10	A (A: 1 nM < conc. ≤ 1 μM)	1
6.00 to 9.00	4.52 to 5.00	6.00 to 9.00	6.00 to 9.00	6.00 to 9.00	6.00 to 9.00	COC(=O)c1cc(OC)cc(Oc2ncccc2-c2ccncc2)c1 [Compound 2, Methyl 3-([3,4′-bipyridin]-2-yloxy)-5-methoxybenzoate]	0.001 to 1	1	A (A: 1 nM < conc. ≤ 1 μM)	A (A: 1 nM < conc. ≤ 1 μM)	1 to 10	A (A: 1 nM < conc. ≤ 1 μM)	1
6.00 to 9.00	4.52 to 5.00	6.00 to 9.00	6.00 to 9.00	6.00 to 9.00	6.00 to 9.00	COC(=O)c1cc(Oc2ncccc2-c2ccnc(N)n2)cc(C(=O)OC)c1 [Compound 21, dimethyl 5-((3-(2-aminopyrimidin-4-yl)pyridin-2-yl)oxy)isophthalate]	0.001 to 1	1	A (A: 1 nM < conc. ≤ 1 μM)	A (A: 1 nM < conc. ≤ 1 μM)	–	A (A: 1 nM < conc. ≤ 1 μM)	1
6.00 to 9.00	4.52 to 5.00	6.00 to 9.00	6.00 to 9.00	5.00 to 6.00	6.00 to 9.00	COC(=O)c1cc(OC)cc(Oc2ncccc2-c2ccnc(N)n2)c1 [Compound 23, Methyl 3-((3-(2-aminopyrimidin-4-yl)pyridin-2-yl)oxy)-5-methoxybenzoate]	0.001 to 1	1	A (A: 1 nM < conc. ≤ 1 μM)	A (A: 1 nM < conc. ≤ 1 μM)	1 to 10	A (A: 1 nM < conc. ≤ 1 μM)	1
